Measured values reported in BindingDB's records for patent US20260049089 (Shanghai Apeiron Therapeutics Company, 2026).

Key:
GTPase KRas (G12D) [1] = molecular target: T1, GTPase KRas (G12D) (Homo sapiens, UniProt P01116, G12D); assay: KRAS-GDP Protein Assay
Experimental: 6> Add 5 μL of KRAS solution prepared with Buffer 1 to each well of the high-signal control group and compound test wells. Add 5 μL of Buffer 1 to each well of the low-signal control group. The final concentration of KRAS in the reaction is 5 nM (initially 40 nM, optimized to 5 nM). Incubate at room temperature for 1 hour.7> Add 5 μL of a solution containing SOS1 and GTP prepared with Buffer 2 to each well. Final concentrations in the reaction: 50 nM for SOS1 (initially 250 nM) and 125 μM for GTP (initially 625 μM). Incubate at room temperature for 1 hour.8> Add 5 μL of a solution containing cRAF and AlphaLISA Nickel Acceptor beads prepared with Buffer 2 to each well. Final concentrations in the reaction: 50 nM for cRAF and 20 μg/mL for AlphaLISA Nickel Acceptor beads. Incubate at room temperature for 1 hour.9> Add 5 μL of an AlphaScreen GSH Donor beads solution prepared with Buffer 2 to each well. Final concentration in the reaction: 20 μg/mL. Incubate at room temperature for 1 hour.10> Measure the signal values using an EnVision plate reader. Excitation wavelength: 680 nm, Emission wavelength: 615 nm.

GTPase KRas (G12D) [2] = molecular target: T1, GTPase KRas (G12D); assay: KRAS-GCP Protein Assay
Experimental: 6> Add 5 μL of KRAS solution prepared with Buffer 1 to each well of the high-signal control group and compound test wells; […]. The final concentration of KRAS in the reaction is 5 nM. Incubate at room temperature for 1 hour.7> Add 5 μL of Buffer 2 to each well. Incubate at room temperature for 1 hour.8> Add 5 μL of a solution containing cRAF and AlphaLISA Nickel Acceptor beads prepared with Buffer 2 to each well. Final concentrations in the reaction: 50 nM for cRAF and 20 μg/mL for AlphaLISA Nickel Acceptor beads. Incubate at room temperature for 1 hour.9> Add 5 μL of an AlphaScreen GSH Donor beads solution prepared with Buffer 2 to each well. Final concentration in the reaction: 20 μg/mL. Incubate at room temperature for 1 hour.10> Measure the signal values using an EnVision plate reader.

GTPase KRas (G12D) [3] = molecular target: T1, GTPase KRas (G12D); assay: KRAS-GTP Protein Assay
Experimental: 6> Mix the prepared protein solution with the SOS1-GTP solution (at the same concentration as used for the GDP protein assay) in a 1:1 volume ratio. Pre-incubate the mixture at room temperature for 1 hour.7> Add 10 μL of the mixture from Step I to each well of the high-signal control group and compound test wells. For the low-signal control group, add 5 μL of Buffer 1 and 5 μL of the SOS1-GTP mixture to each well. Incubate at room temperature for 1 hour.8> Add 5 μL of a solution containing cRAF and AlphaLISA Nickel Acceptor beads prepared with Buffer 2 to each well. Final concentrations in the reaction: 50 nM for cRAF and 20 μg/mL for AlphaLISA Nickel Acceptor beads. Incubate at room temperature for 1 hour.9> Add 5 μL of an AlphaScreen GSH Donor beads solution prepared with Buffer 2 to each well. Final concentration in the reaction: 20 μg/mL. Incubate at room temperature for 1 hour.10> Measure the signal values using an EnVision plate reader. Excitation wavelength: 680 nm, Emission wavelength: 615 nm.

T1 sequence (P01116 whole entry G12D): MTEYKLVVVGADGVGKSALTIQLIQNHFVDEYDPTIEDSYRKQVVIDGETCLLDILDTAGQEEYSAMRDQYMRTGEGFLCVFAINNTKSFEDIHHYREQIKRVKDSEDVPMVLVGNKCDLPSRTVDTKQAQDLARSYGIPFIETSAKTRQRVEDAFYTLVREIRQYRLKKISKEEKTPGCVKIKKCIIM

Compound	IC50 (GTPase KRas (G12D) [1]) [nM]	IC50 (GTPase KRas (G12D) [2]) [nM]	IC50 (GTPase KRas (G12D) [3]) [nM]
Oc1cc2c3c(c(F)ccc3c1)CCCCNc1cc3c(N4CC5CCC(C4)N5)nc(OC[C@@]45CCCN4C[C@H](F)C5)nc3c(F)c1-2 [US20260049089, Example 2]	2.87	> 1000	3.23
CN1CCCCc2c(F)ccc3cc(O)cc(c23)-c2c1cc1c(N3CC4CCC(C3)N4)nc(OC[C@@]34CCCN3C[C@H](F)C4)nc1c2F [US20260049089, Example 3]	2.31	> 1000	3.24
O=C1CCCCc2c(F)ccc3cc(O)cc(c23)-c2c(cc3c(N4CC5CCC(C4)N5)nc(OC[C@@]45CCCN4C[C@H](F)C5)nc3c2F)N1 [US20260049089, Example 4]	2.2	94.4	3.5
Oc1cc2c3c(c(F)ccc3c1)CCCCCNc1cc3c(N4CC5CCC(C4)N5)nc(OC[C@@]45CCCN4C[C@H](F)C5)nc3c(F)c1-2 [US20260049089, Example 5]	2.06	232	2.63
